The record followed here is US20070197522A1, “Dpp-iv inhibitors” (priority 2004, published 2007).

Where a name gives a salt, the structure may show the parent alone.

In this experiment the target is T1, DPP-IV (Homo sapiens, UniProt P27487).
T1 construct: Soluble human DPP-IV lacking the transmembrane anchor (Gly31-Pro766) was expressed in a recombinant YEAST-strain; Pre-Pro-alpha-mating factor leader (secretion fusion) (N, cleaved yes); made in house
In words: Inhibition of DPP-IV peptidase activity, continuous fluorimetric assay (Gly-Pro-AMC cleavage). It is filed as biochemical, human and porcine. The conditions noted are these: inhibition of DPP-IV peptidase activity; 50 pM DPP-IV, 16 μM Gly-Pro-AMC, pH 7.4, 25° C.; values grouped in 3 classes; read-out: IC50. The method, then: Inhibition of DPP-IV peptidase activity was monitored with a continuous fluorimetric assay. This assay is based on the cleavage of the substrate Gly-Pro-AMC (Bachem) by DPP-IV, releasing free AMC. The assay is carried out in 96-well microtiterplates. In a total volume of 100 μL, compounds are preincubated with 50 pM DPP-IV employing a buffer containing 10 mM Hepes, 150 mM NaCl, 0.005% Tween 20 (pH 7.4). […] The final concentration of DMSO is 1%. The inhibitory potential of the compounds were determined.
Soluble human DPP-IV lacking the transmembrane anchor (Gly31-Pro766) was expressed in a recombinant YEAST-strain as Pre-Pro-alpha-mating fusion. The secreted product (rhuDPP-IV-Gly31-Pro766) was purified from fermentation broth (>90% purity).

T1 sequence (P27487 31-766): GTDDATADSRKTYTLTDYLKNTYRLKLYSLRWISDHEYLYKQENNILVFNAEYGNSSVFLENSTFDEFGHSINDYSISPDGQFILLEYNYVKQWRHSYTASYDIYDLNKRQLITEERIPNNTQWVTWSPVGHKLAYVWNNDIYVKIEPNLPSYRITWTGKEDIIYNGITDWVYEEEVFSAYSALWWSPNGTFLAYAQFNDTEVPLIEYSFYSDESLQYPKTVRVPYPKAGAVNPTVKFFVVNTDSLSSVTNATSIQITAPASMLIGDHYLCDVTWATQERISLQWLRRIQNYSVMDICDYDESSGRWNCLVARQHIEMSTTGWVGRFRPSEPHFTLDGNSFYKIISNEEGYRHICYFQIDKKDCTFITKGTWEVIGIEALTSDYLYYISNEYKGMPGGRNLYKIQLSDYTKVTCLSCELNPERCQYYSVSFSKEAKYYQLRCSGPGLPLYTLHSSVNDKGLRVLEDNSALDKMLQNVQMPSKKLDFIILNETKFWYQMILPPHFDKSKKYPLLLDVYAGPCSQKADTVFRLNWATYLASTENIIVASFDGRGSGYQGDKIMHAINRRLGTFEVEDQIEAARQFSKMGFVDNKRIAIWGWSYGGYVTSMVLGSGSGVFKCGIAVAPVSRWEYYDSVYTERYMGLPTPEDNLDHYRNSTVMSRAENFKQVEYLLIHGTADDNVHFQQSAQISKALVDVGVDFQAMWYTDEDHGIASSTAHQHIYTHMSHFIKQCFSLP

As usually defined, the IC50 is the point on the concentration scale where inhibition reaches its midpoint. Regarding `N[C@@H](CC(=O)NCC1OCCc2ccccc21)Cc1ccccc1F` (single isomer, unassigned) [Example 67], the IC50 was 101 to 1000 nM.
Turning to `N[C@@H](CC(=O)NC(Cc1ccccc1)c1ccccc1)Cc1ccccc1F` (single isomer, unassigned) [Example 74], the IC50 was 101 to 1000 nM.
Consider `N[C@@H](CC(=O)NCC1CCCc2ccccc21)Cc1ccccc1F` (single isomer, unassigned) [Example 78], for which the IC50 was in the range of 101 to 1000 nM.
In the case of `CN(C)C(CNC(=O)C[C@H](N)Cc1ccccc1F)c1ccccc1Cl` (single isomer, unassigned) [Example 84] it was 101 to 1000 nM; in that of `CN(C)C(CNC(=O)C[C@H](N)Cc1ccccc1F)c1ccccc1` (single isomer, unassigned) [Example 85], 101 to 1000 nM.
As for `N[C@@H](CC(=O)NC(CN1CCOCC1)c1ccccc1)Cc1ccccc1F` (single isomer, unassigned) [Example 86], the IC50 was in the range of 101 to 1000 nM.
The result for `N[C@@H](CC(=O)NC(CN1CCCC1)c1ccccc1)Cc1ccccc1F` (single isomer, unassigned) [Example 87] reads less than 100 nM.
The result for `N[C@@H](CC(=O)NC(CN1CCCC1)c1ccccc1Cl)Cc1ccccc1F` (single isomer, unassigned) [Example 90] reads less than 100 nM.
Consider `N[C@@H](CC(=O)NC(CN1CCCC1)c1ccccc1)Cc1ccccc1F` (single isomer, unassigned) [Example 91], for which the IC50 lay in the range of 101 to 1000 nM.
Turning to `CC(CNC(=O)C[C@H](N)Cc1ccccc1F)c1ccc(Cl)cc1` (single isomer, unassigned) [Example 107], the IC50 lay in the range of 101 to 1000 nM.
In the case of `N[C@@H](CC(=O)NC(CN1CCCCC1)c1ccccc1)Cc1ccccc1F` (single isomer, unassigned) [Example 109] it was 101 to 1000 nM.
The result for `N[C@@H](CC(=O)NCC(c1ccccc1)N1CCCC1)Cc1ccccc1F` (single isomer, unassigned) [Example 131] reads 101 to 1000 nM; that for `N[C@@H](CC(=O)NCC(c1ccccc1Cl)N1CCCC1)Cc1ccccc1F` (single isomer, unassigned) [Example 132], 101 to 1000 nM; that for `NC(CC(=O)NCC(c1ccccc1Cl)N1CCCC1)Cc1ccccc1F` (single isomer, unassigned) [Example 134], less than 100 nM.
Consider `NC(CC(=O)NC(CN1CCCC1)c1ccccc1)Cc1ccccc1F` (single isomer, unassigned) [Example 135], for which the IC50 is less than 100 nM.
As to `C[S+]([O-])c1ccccc1CNC(=O)C[C@H](N)Cc1ccccc1F` (single isomer, unassigned) [Example 137], the IC50 was 101 to 1000 nM.
Consider `CC(C)[C@H](NC(=O)C[C@H](N)Cc1cc(F)c(F)cc1F)c1nc(C2CC2)no1` [Example 29, (R)-3-Amino-N—[(S)-1-(3-cyclopropyl-[1,2,4]oxadiazol-5-yl)-2-methyl-propyl]-4-(2,4,5-trifluoro-phenyl)-butyramide. Formic Acid Salt], for which the IC50 was less than 100 nM.
The result for `NC(=O)c1cccc(CNC(=O)C[C@H](N)Cc2ccccc2F)c1` [Example 30, 3-{[(3R)-3-Amino-4-(2-fluoro-phenyl)-butyrylamino]-methyl}-benzamide Trifluoroacetate Salt] reads 101 to 1000 nM; that for `NC(=O)c1ccc(CNC(=O)C[C@H](N)Cc2ccccc2F)cc1` [Example 31, 4-{[(3R)-3-Amino-4-(2-fluoro-phenyl)-butyrylamino]-methyl}-benzamide.trifluoroacetate Salt], 101 to 1000 nM; that for `N[C@@H](CC(=O)NCc1cccc(C(=O)NC2CC2)c1)Cc1ccccc1F` [Example 32, 3-{[(3R)-3-Amino-4-(2-fluoro-phenyl)-butyrylamino]-methyl}-N-cyclopropyl-benzamide. Trifluoroacetate Salt], 101 to 1000 nM.
The result for `N[C@@H](CC(=O)NCc1cccc(C(=O)NCc2ccccc2F)c1)Cc1ccccc1F` [Example 33] reads 101 to 1000 nM.
`N[C@@H](CC(=O)NCc1cccc(C(=O)Nc2ccccn2)c1)Cc1ccccc1F` [Example 34]: the IC50 lay within 101 to 1000 nM.
The result for `N[C@@H](CC(=O)NCc1cccc(C(=O)NCc2ccc(S(N)(=O)=O)cc2)c1)Cc1ccccc1F` [Example 35] reads 101 to 1000 nM.
The result for `CN(Cc1ccccc1F)C(=O)C[C@H](N)Cc1ccccc1F` [Example 36, (3R)-Amino-N-(2-fluoro-benzyl)-4-(2-fluoro-phenyl)-N-methyl-butyramide Hydrochloride] reads 101 to 1000 nM.
Regarding `Cc1ccccc1CN(C)C(=O)C[C@H](N)Cc1ccccc1F` [Example 37, 3-Amino-4-(2-fluoro-phenyl)-N-methyl-N-(2-methyl-benzyl)-butyramide Hydrochloride], the IC50 was 101 to 1000 nM.
In the case of `CSc1ccccc1CN(C)C(=O)C[C@H](N)Cc1ccccc1F` [Example 38, 3-Amino-4-(2-fluoro-phenyl)-N-methyl-N-(2-methylsulfanyl-benzyl)-butyramide Hydrochloride] it was 101 to 1000 nM; in that of `CN(C)CCNC(=O)C[C@H](N)Cc1ccccc1F` [Example 39], 101 to 1000 nM.
As to `N[C@@H](CC(=O)NCCc1ccccn1)Cc1ccccc1F` [Example 40], the IC50 was 101 to 1000 nM.
In the case of `N[C@@H](CC(=O)NCc1ccccc1)Cc1ccccc1F` [Example 41] it was 1000 to 2000 nM; in that of `NC(CC(=O)NC1c2ccccc2CC1O)Cc1ccccc1F` (stereo not shown) [Example 43], 1000 to 2000 nM; in that of `N[C@@H](CC(=O)NCc1ccc(Cl)cc1Cl)Cc1ccccc1F` [Example 44], 101 to 1000 nM.
In the case of `NC(CC(=O)NC1CCCc2ccccc21)Cc1ccccc1F` (stereo not shown) [Example 45] it was 101 to 1000 nM; in that of `N[C@@H](CC(=O)NCc1cc(F)cc(F)c1)Cc1ccccc1F` [Example 46], 101 to 1000 nM.
Regarding `N[C@@H](CC(=O)NC(c1ccccc1)c1ccccc1)Cc1ccccc1F` [Example 47], the IC50 fell in the range of 101 to 1000 nM.
On to `N[C@@H](CC(=O)NCc1ccncc1)Cc1ccccc1F` [Example 48], for which the IC50 was 101 to 1000 nM.
Regarding `Cc1ccccc1CNC(=O)C[C@H](N)Cc1ccccc1F` [Example 49], the IC50 was 101 to 1000 nM.
In the case of `N[C@@H](CC(=O)NCCc1ccccc1)Cc1ccccc1F` [Example 50] it was 101 to 1000 nM; in that of `N[C@@H](CC(=O)NCc1cc(Cl)ccc1Cl)Cc1ccccc1F` [Example 51], 101 to 1000 nM.
In the case of `N[C@@H](CC(=O)NCc1ccccn1)Cc1ccccc1F` [Example 52] it was 101 to 1000 nM.
In the case of `N[C@@H](CC(=O)NCc1ccc(Cl)cc1)Cc1ccccc1F` [Example 54], the IC50 lay within 101 to 1000 nM.
The result for `N[C@@H](CC(=O)NC1Cc2ccccc2C1)Cc1ccccc1F` [Example 55] reads 101 to 1000 nM; that for `N[C@@H](CC(=O)NCc1ccc2c(c1)CCO2)Cc1ccccc1F` [Example 56], 101 to 1000 nM; that for `COc1ccc(-c2cc(CNC(=O)C[C@H](N)Cc3ccccc3F)on2)cc1` [Example 57], 101 to 1000 nM.
As for `N[C@@H](CC(=O)NCc1cccnc1)Cc1ccccc1F` [Example 58], the IC50 was in the range of 101 to 1000 nM.
In the case of `N[C@@H](CC(=O)NCc1ccc2c(c1)OCCO2)Cc1ccccc1F` [Example 61] it was 101 to 1000 nM; in that of `Cc1cc(CNC(=O)C[C@H](N)Cc2ccccc2F)no1` [Example 62], 101 to 1000 nM.
The result for `N[C@@H](CC(=O)NCc1ccc(-n2cccn2)cc1)Cc1ccccc1F` [Example 63] reads less than 100 nM.
The result for `N[C@@H](CC(=O)NCc1cccc(-c2ccccc2)c1)Cc1ccccc1F` [Example 64] reads 1000 to 2000 nM; that for `N[C@@H](CC(=O)NCc1cc(F)c(F)c(F)c1)Cc1ccccc1F` [Example 65], 101 to 1000 nM.
As to `N[C@@H](CC(=O)NCc1ccc(C(F)(F)F)cc1)Cc1ccccc1F` [Example 68], the IC50 lay in the range of 101 to 1000 nM.
Consider `N[C@@H](CC(=O)NCc1ccccc1C(F)(F)F)Cc1ccccc1F` [Example 69], for which the IC50 fell in the range of 1000 to 2000 nM.
The result for `N[C@@H](CC(=O)NCc1cccc(Cl)c1)Cc1ccccc1F` [Example 70] reads 101 to 1000 nM.
The result for `N[C@@H](CC(=O)NCc1c(Cl)cccc1Oc1ccccc1)Cc1ccccc1F` [Example 71] reads 101 to 1000 nM.
In the case of `CC(C)c1ccc(CNC(=O)C[C@H](N)Cc2ccccc2F)cc1` [Example 73] it was 101 to 1000 nM; in that of `N[C@@H](CC(=O)NCc1ccccc1-c1ccccc1)Cc1ccccc1F` [Example 75], 101 to 1000 nM.
Turning to `NC(CC(=O)NCc1ccc(Oc2ccccc2)cc1)Cc1ccccc1F` (stereo not shown) [Example 76], the IC50 fell in the range of 101 to 1000 nM.
In the case of `N[C@@H](CC(=O)NCc1cccc(Oc2ccccc2)c1)Cc1ccccc1F` [Example 77] it was 101 to 1000 nM; in that of `Cc1noc(C)c1CCNC(=O)C[C@H](N)Cc1ccccc1F` [Example 80], 101 to 1000 nM; in that of `COc1cccc(CCNC(=O)C[C@H](N)Cc2ccccc2F)c1` [Example 81], 1000 to 2000 nM.
With `N[C@@H](CC(=O)NCCN1CCCCC1)Cc1ccccc1F` [Example 82], the IC50 lay within 101 to 1000 nM.
For the molecule `N[C@@H](CC(=O)NCCc1cccnc1)Cc1ccccc1F` [Example 83], the IC50 fell in the range of 101 to 1000 nM.
The result for `Cc1ccc(C(C)NC(=O)CC(N)Cc2ccccc2F)cc1` (stereo not shown) [Example 89] reads 101 to 1000 nM; that for `N[C@@H](CC(=O)NCCc1ccc(Cl)c(Cl)c1)Cc1ccccc1F` [Example 92], 101 to 1000 nM.
The result for `C[C@H](CNC(=O)C[C@H](N)Cc1ccccc1F)c1ccccc1` [Example 93] reads 1000 to 2000 nM.
